Data reported in US20080300199A1, “ANTIBACTERIAL 1,4,5-SUBSTITUTED AMINOGLYCOSIDE ANALOGS” (Achaogen Inc., priority 2007, published 2008).
In brackets after ≈: the same amount, converted by molar mass.

Experiments:
Format in all cases: cell-based
P. aeruginosa APAE042 = test: MIC assay, aminoglycoside-resistant P. aeruginosa APAE042; conditions: origin SPRI; for MIC (μg/ml) APAE042: phenotype AAC(6′)-II; for MIC: Pseudomonas aeruginosa, APAE042, phenotype AAC(6′)-II, read-out: MIC (μg/ml) APAE042
Method: (§1) The MIC assays were carried out in 150 μL volume in duplicate in 96-well clear flat-bottom plates. The bacterial suspension from an overnight culture growth in appropriate medium was added to a solution of test compound in 4% DMSO in water. Final bacterial inoculum was approximately 10^5-10^6 CFU/well. The percent growth of the bacteria in test wells relative to that observed for a well containing no compound was determined by measuring absorbance at 595 nm (A595) after 24 h. […] Both ampicillin and tetracycline are used as antibiotic-positive controls in each screening assay for E. coli, S. aureus and K. pneumoniae. Ciprofloxacin is used as an antibiotic-positive control in each screening assay for P. aeruginosa. Amikacin is used as an antibiotic-positive control in each screening assay for A. baumannii. Each of the bacterial cultures that are available from ATCC (www.atcc.org) is identified by its ATCC number.
(§2) MIC assays were carried out as set forth in Example 20 above against certain aminoglycoside-resistant strains of Pseudomonas Aeruginosa.

P. aeruginosa APAE040 = test: MIC assay, aminoglycoside-resistant P. aeruginosa APAE040; conditions: origin SPRI; for MIC (μg/ml) APAE040: phenotype AAC(3)-I; for MIC: Pseudomonas aeruginosa, APAE040, phenotype AAC(3)-I, read-out: MIC (μg/ml) APAE040
Method: as §1, §2

P. aeruginosa APAE1068 = test: MIC assay, aminoglycoside-resistant P. aeruginosa APAE1068; conditions: origin Focus - France; for MIC (μg/ml) APAE1068: phenotype AAC(6′)-I + Efflux; for MIC: Pseudomonas aeruginosa, APAE1068, phenotype AAC(6′)-I + Efflux, read-out: MIC (μg/ml) APAE1068
Method: as §1, §2

P. aeruginosa APAE1009 = test: MIC assay, aminoglycoside-resistant P. aeruginosa APAE1009; conditions: origin RJ - Greece; for MIC (μg/ml) APAE1009: phenotype AAC(6′)-I + Efflux; for MIC: Pseudomonas aeruginosa, APAE1009, phenotype AAC(6′)-I + Efflux, read-out: MIC (μg/ml) APAE1009
Method: as §1, §2

P. aeruginosa APAE1058 = test: MIC assay, aminoglycoside-resistant P. aeruginosa APAE1058; conditions: origin CF - USA; for MIC (μg/ml) APAE1058: phenotype High level efflux; for MIC: Pseudomonas aeruginosa, APAE1058, phenotype High level efflux, read-out: MIC (μg/ml) APAE1058
Method: as §1, §2

S. aureus ATCC 29213 = test: MIC assay, S. aureus ATCC 29213; conditions: absorbance at 595 nm after 24 h; for MIC: Staphylococcus aureus, ATCC29213, read-out: MIC (μg/ml) S. aureus ATCC 29213
Method: as §1

E. coli ATCC 25922 = test: MIC assay, E. coli ATCC 25922; conditions: absorbance at 595 nm after 24 h; for MIC: Escherichia coli, ATCC25922, read-out: MIC (μg/ml) E. coli ATCC 25922
Method: as §1, with “CFU/well.” for “CFU/well. The percent growth of the bacteria in test wells relative to that observed for a well containing no compound was determined by measuring absorbance at 595 nm (A595) after 24 h.”, “Ciprofloxacin is used as an antibiotic-positive control in each screening assay for P. aeruginosa.” left out

P. aeruginosa ATCC 27853 = test: MIC assay, P. aeruginosa ATCC 27853; conditions: absorbance at 595 nm after 24 h; for MIC: Pseudomonas aeruginosa, ATCC27853, read-out: MIC (μg/ml) P. aeruginosa ATCC 27853
Method: as §1, with “CFU/well.” for “CFU/well. The percent growth of the bacteria in test wells relative to that observed for a well containing no compound was determined by measuring absorbance at 595 nm (A595) after 24 h.”, “Ciprofloxacin is used as an antibiotic-positive control in each screening assay for P. aeruginosa.” left out

A. baumannii ATCC 19606 = test: MIC assay, A. baumannii ATCC 19606; conditions: absorbance at 595 nm after 24 h; for MIC: Acinetobacter baumannii, ATCC19606, read-out: MIC (μg/ml) A. baumannii ATCC 19606
Method: as §1

K. pneumoniae ATCC 10031 = test: MIC assay, K. pneumoniae ATCC 10031; conditions: absorbance at 595 nm after 24 h; for MIC: Klebsiella pneumoniae, ATCC10031, read-out: MIC (μg/ml) K. pneumoniae ATCC 10031
Method: as §1

[1] = test system: aminoglycoside-resistant Pseudomonas aeruginosa; test: MIC assays against aminoglycoside-resistant strains of Pseudomonas aeruginosa, summary in words; conditions: particularly strains expressing efflux-based resistance alone or with AMEs; in comparison to compound 10 and comparative compounds A and B
Method: as §1, §2

Row | Compound | MIC (μg/ml) APAE042 (P. aeruginosa APAE042) [µg/mL] | MIC (μg/ml) APAE040 (P. aeruginosa APAE040) [µg/mL] | MIC (μg/ml) APAE1068 (P. aeruginosa APAE1068) [µg/mL] | MIC (μg/ml) APAE1009 (P. aeruginosa APAE1009) [µg/mL] | MIC (μg/ml) APAE1058 (P. aeruginosa APAE1058) [µg/mL] | MIC (S. aureus ATCC 29213) [µg/mL] | MIC (E. coli ATCC 25922) [µg/mL] | MIC (P. aeruginosa ATCC 27853) [µg/mL] | MIC (A. baumannii ATCC 19606) [µg/mL] | MIC (K. pneumoniae ATCC 10031) [µg/mL] | MIC (P. aeruginosa APAE042) [µg/mL] | MIC (P. aeruginosa APAE040) [µg/mL] | MIC (P. aeruginosa APAE1068) [µg/mL] | MIC (P. aeruginosa APAE1009) [µg/mL] | MIC (P. aeruginosa APAE1058) [µg/mL] | also measured
1 | NCC1C=CC(N)C(OC2C(N)CC(N)C(O)C2OC2OC(CO)C(OC3OC(CN)C(O)C(O)C3N)C2O)O1 (centres unmarked) [A, 3′,4′-Di-deoxy-3′,4′-Di-dehydro-neomycin-B, reference compound] | 4 (≈ 6.89 µM) | 4 (≈ 6.89 µM) | 8 | >8 | >8 | – | – | – | – | – | – | – | – | – | – | –
2 | NCC[C@H](O)C(=O)N[C@@H]1C[C@H](N)[C@@H](O[C@H]2O[C@H](CN)[C@@H](O)[C@H](O)[C@H]2O)[C@H](O)[C@H]1O[C@H]1O[C@H](CO)[C@@H](O)[C@H](N)[C@H]1O [Amikacin, reference compound] | – | – | – | – | – | 1 to 8 (≈ 1.71 to 13.7 µM) | 1 to 8 (≈ 1.71 to 13.7 µM) | 1 to 8 (≈ 1.71 to 13.7 µM) | > 8 | < 1 | – | – | – | – | – | –
3 | NCC1CCC(N)C(OC2C(N)CC(N)C(O)C2OC2OC(CO)C(OC3OC(CN)C(O)C(O)C3N)C2O)O1 (centres unmarked) [B, 3′,4′-Di-deoxy-neomycin-B, reference compound] | 2 (≈ 3.43 µM) | 1 (≈ 1.72 µM) | 4 | >8 | >8 | – | – | – | – | – | – | – | – | – | – | –
4 | NCC[C@H](O)C(=O)N[C@@H]1C[C@H](N)[C@@H](O[C@H]2O[C@H](CN)CC[C@H]2N)[C@H](O[C@@H]2O[C@H](CO)[C@@H](O[C@H]3O[C@@H](CN)[C@@H](O)[C@H](O)[C@H]3N)[C@H]2O)[C@H]1O [Compound 10, 3′,4′-Di-deoxy-N-1 haba neomycin] | – | – | – | – | – | < 1 | < 1 | < 1 | 1 to 8 (≈ 1.46 to 11.7 µM) | < 1 | 1 (≈ 1.46 µM) | 2 (≈ 2.93 µM) | 8 | 4 | 32 (≈ 46.8 µM) | –
5 | NCC[C@H](O)C(=O)N[C@@H]1C[C@H](N)[C@@H](O[C@H]2O[C@H](CN)C=C[C@H]2N)[C@H](O[C@@H]2O[C@H](CO)[C@@H](O[C@H]3O[C@@H](CN)[C@@H](O)[C@H](O)[C@H]3N)[C@H]2O)[C@H]1O [Compound 11] | – | – | – | – | – | < 1 | 1 to 8 (≈ 1.47 to 11.7 µM) | 1 to 8 (≈ 1.47 to 11.7 µM) | 1 to 8 (≈ 1.47 to 11.7 µM) | < 1 | 0.5 (≈ 0.733 µM) | 1 (≈ 1.47 µM) | 2 | 2 | 16 (≈ 23.5 µM) | activity on aminoglycoside-resistant Pseudomonas aeruginosa strains [1]: superior activity
6 | NCC[C@H](O)C(=O)NC1CC(N)C(OC2OC(CN)CC(O)C2N)C(OC2OC(CO)C(OC3OC(CN)C(O)C(O)C3N)C2O)C1O (some centres unmarked) [Compound 18, 4′-Deoxy-N-1 haba neomycin] | – | – | – | – | – | – | – | – | – | – | – | – | – | – | – | MIC (μg/ml) S. aureus ATCC 29213 (S. aureus ATCC 29213): B (MIC's of greater than 1.0 μg/mL to 8.0 μg/mL = B); MIC (μg/ml) E. coli ATCC 25922 (E. coli ATCC 25922): B (MIC's of greater than 1.0 μg/mL to 8.0 μg/mL = B); MIC (μg/ml) P. aeruginosa ATCC 27853 (P. aeruginosa ATCC 27853): A (MIC's of 1.0 μg/mL or less = A); MIC (μg/ml) A. baumannii ATCC 19606 (A. baumannii ATCC 19606): B (MIC's of greater than 1.0 μg/mL to 8.0 μg/mL = B); MIC (μg/ml) K. pneumoniae ATCC 10031 (K. pneumoniae ATCC 10031): A (MIC's of 1.0 μg/mL or less = A)
